How the values were obtained:
[1] = tested on: BT474; assay: Growth inhibition (CTG assay), BT474; format: cell-based; conditions: Homo sapiens, BT-474, PIK3CA wt/p.K111N, average GI50, CTG assay
Procedure: We used a panel of breast cancer cell lines that represent the heterogeneity seen in breast tumors for drug screening. Fixed numbers of cells were plated in 96 well plates. Using a Biotek liquid handling robot, cells were treated with nine two-fold dilutions of an AKT inhibitor (GSK690693), a second drug (lapatinib), or a combination of the two. Response was measured using CTG assay as % Growth Inhibition. […] Synergistic interactions between drugs was calculated by standard median-effect method using % inhibition (inhibitory concentration) readings and reported as a combination index using the Synergy module in R.

[2] = tested on: UACC812; assay: Growth inhibition (CTG assay), UACC812; format: cell-based; conditions: Homo sapiens, UACC-812, PIK3CA wt, PTEN wt, average GI50, CTG assay
Procedure: (§1) We used a panel of breast cancer cell lines that represent the heterogeneity seen in breast tumors for drug screening. Fixed numbers of cells were plated in 96 well plates. Using a Biotek liquid handling robot, cells were treated with nine two-fold dilutions of an AKT inhibitor (GSK690693), a second drug (lapatinib), or a combination of the two. Response was measured using CTG assay as % Growth Inhibition. 50% Growth Inhibition (GI50) was calculated. Synergistic interactions between drugs was calculated by standard median-effect method using % inhibition (inhibitory concentration) readings and reported as a combination index using the Synergy module in R.

[3] = tested on: MDAMB453; assay: Growth inhibition (CTG assay), MDAMB453; format: cell-based; conditions: Homo sapiens, MDA-MB-453, PIK3CA p.H1047R, PTEN wt/p.E307K, average GI50, CTG assay
Procedure: as §1

[4] = tested on: AU565; assay: Growth inhibition (CTG assay), AU565; format: cell-based; conditions: Homo sapiens, PIK3CA wt, PTEN wt, average GI50, CTG assay
Procedure: as §1

[5] = tested on: SUM225; assay: Growth inhibition (CTG assay), SUM225; format: cell-based; conditions: Homo sapiens, PIK3CA wt, average GI50, CTG assay
Procedure: as §1

[6] = tested on: HCC202; assay: Growth inhibition (CTG assay), HCC202; format: cell-based; conditions: Homo sapiens, PIK3CA p.E545K, average GI50, CTG assay
Procedure: as §1

[7] = tested on: SKBR3; assay: Growth inhibition (CTG assay), SKBR3; format: cell-based; conditions: Homo sapiens, SK-BR-3, PIK3CA wt, PTEN wt, average GI50, CTG assay
Procedure: as §1

[8] = tested on: MDAMB175; assay: Growth inhibition (CTG assay), MDAMB175; format: cell-based; conditions: Homo sapiens, PIK3CA wt, PTEN wt, not HER2 amplified, average GI50, CTG assay
Procedure: as §1

[9] = tested on: SUM190PT; assay: Growth inhibition (CTG assay), SUM190PT; format: cell-based; conditions: Homo sapiens, PIK3CA p.H1047R, average GI50, CTG assay
Procedure: as §1

[10] = tested on: HCC1569; assay: Growth inhibition (CTG assay), HCC1569; format: cell-based; conditions: Homo sapiens, PIK3CA wt, PTEN p.K267fs*9, average GI50, CTG assay
Procedure: as §1

[11] = tested on: Akt; conditions: ATP-competitive; three Akt isoforms; cited from earlier work
[12] = tested on: MDAMB361; assay: Growth inhibition (CTG assay), MDAMB361; format: cell-based; conditions: Homo sapiens, MDA-MB-361, PIK3CA wt/p.E545K, average GI50, CTG assay
Procedure: as §1

[13] = tested on: HCC1954; assay: Growth inhibition (CTG assay), HCC1954; format: cell-based; conditions: Homo sapiens, PIK3CA p.H1047R, average GI50, CTG assay
Procedure: as §1

GI50 [1]	GI50 [3]	GI50 [6]	GI50 [7]	GI50 [8]	GI50 [10]	GI50 [12]	GI50 [13]	SMILES	GI50 [2]	GI50 [4]	GI50 [5]	GI50 [9]	pan-Akt kinase inhibition potency [11]
89 nM	109 nM	15 nM	54 nM	27 nM	122 nM	63 nM	119 nM	CCn1c(-c2nonc2N)nc2c(C#CC(C)(C)O)ncc(OC[C@H]3CCCNC3)c21 [AKT]	41 nM	109 nM	293 nM	229 nM	low-nanomolar
116 nM	922 nM	68 nM	163 nM	114 nM	420 nM	106 nM	673 nM	CS(=O)(=O)CCNCc1ccc(-c2ccc3ncnc(Nc4ccc(OCc5cccc(F)c5)c(Cl)c4)c3c2)o1 [Lap, lapatinib]	106 nM	87 nM	245 nM	806 nM	–

Source: patent US20130331405A1, “PIK3CA Mutation Status and SASH1 Expression Predicts Synergy Between Lapatinib and an AKT Inhibitor in HER2 Positive Breast Cancer” (THE REGENTS OF THE UNIVERSITY OF CALIFORNIA, priority 2012, published 2013)
